The source of these data is patent US9695218B2, “Pharmaceutical composition for preventing or treating ocular surface disease” (INJE UNIVERSITY INDUSTRY-ACADEMIC COOPERATION FOUNDATION, priority 2014, dated 2017).

Type in all cases: in vivo, New Zealand white rabbits
Assay [1] deals with cornea of alkaline burn rabbit. Description: Clinical evaluation of corneal angiogenesis and opacification in corneal alkaline burn rabbit model. To be noted: 10 mg/mL instilled 4 times per day for 10 days, day 17 after alkaline burn; for corneal opacity score (graded 0 through 3): mean±SD, n=5, saline control 3.0±0.0. As to the method: (§1) 15 New Zealand white rabbits weighing between 2.0 kg and 2.5 kg were purchased from Samtako (Osan, Korea), and then, were subjected to systemic anesthesia by intramuscular injection of a mixture of ketamine hydrochloride (30 mg/kg body weight, Huons, Jecheon, Korea) and xylazine hydrochloride (2.5 mg/kg, Bayer Korea Ltd., Seoul, Korea) and to topical anesthesia by Alcaine propracaine eye drops (Alcon Inc., Seoul, Korea).
(§2) Afterwards, alkaline burn model was developed by applying an 8 mm filter paper soaked in 1 N NaOH to the right central corneas of rabbits for 1 minute. 7 days later, an increase in corneal angiogenesis and corneal opacity upon alkaline burns was confirmed.
(§3) The rabbits were randomly divided into three groups: the alkaline burn group (n=5), the peptide I group (n=5), and the peptide II group (n=5). The alkaline burn group was treated with saline instilled thereto 4 times per day, the peptide I group was treated with 10 mg/mL of peptide SEQ ID NO: 1 instilled thereto 4 times per day, and the peptide II was treated with 10 mg/mL of peptide SEQ ID NO: 2 instilled thereto 4 times per day. The left eyes were used as controls.
7 days after the corneal alkaline burns, clinical evaluation of corneal angiogenesis and opacification was performed.
First, the extent of corneal angiogenesis was scored from 0 through 3, where 0 denotes no angiogenesis, 1 denotes angiogenesis confined to the corneal periphery, 2 denotes angiogenesis extending up to the pupil margin, and 3 denotes angiogenesis extending beyond the pupil margin into the central cornea. In eyes where significant opacification or extensive symblepharon formation caused difficulties in evaluating corneal angiogenesis, a score of 3 was assigned.
In addition, the severity of corneal opacification was graded from 0 through 3, where 0 denotes clear cornea with iris details clearly visualized, 1 denotes partial obscuration of the iris details, 2 denotes iris details poorly seen with the pupil margin just visible, and 3 denotes complete obscuration of iris and pupil details. […]

Assay [2] relates to cornea of alkaline burn rabbit. As to the kind of experiment: H&E staining for histological changes in cornea following alkaline burn. To be noted: 10th day after treatment, 10 mg/mL instilled 4 times per day. The method, then: as §1, §2, §3
(§4) On the 10th day after the treatment as described above, the H&E staining, the Masson's trichrome staining, and immunohistochemistry were performed to observe the fibrosis, angiogenesis, inflammation, and structural changes of the cornea. […]

Assay [3] concerns cornea of alkaline burn rabbit. As to the kind of experiment: Corneal thickness of H&E-stained tissue sections in corneal alkaline burn rabbit model. To be noted: 10th day after treatment, 10 mg/mL instilled 4 times per day, normal 628.0±13.2, alkali burn control 1078.0±30.8. The method, then: as §1, §2
The rabbits were randomly divided into three groups: the alkaline burn group (n=5), the peptide I group (n=5), and the peptide II group (n=5). The alkaline burn group was treated with saline instilled thereto 4 times per day, the peptide I group was treated with 10 mg/mL of peptide SEQ ID NO: 1 instilled thereto 4 times per day, and the peptide II was treated with 10 mg/mL of peptide SEQ ID NO: 2 instilled thereto 4 times per day. The left eyes were used as controls. […]
The corneal thickness of the tissue sections was measured using photographs obtained by the H&E staining and taken with a virtual microscope (NanoZoomer 2.0 RS, Hamamatsu, Japan) according to the NDP view program (Hamamatsu, USA).

Assay [4] relates to fibroblast in the stroma of alkaline burn rabbit cornea. Description: Masson's trichrome staining for fibrotic changes of the cornea following alkali burns. To be noted: 10th day after treatment, 10 mg/mL instilled 4 times per day. As to the method:
as §1, §2, §3, §4

In assay [5] the test system is VCAM-1. As to the kind of experiment: Immunohistochemistry of inflammatory marker VCAM-1 in alkaline burn rabbit cornea. To be noted: 10 mg/mL instilled 4 times per day, 10th day. As to the method: (§5) Ocular tissue sections of an alkaline burn animal model were cut to a thickness of 6 μm, and then, the tissue sections were used for immunohistochemical analysis.
(§6) First, the tissue sections were fixed in 3.5% paraformaldehyde, permeabilized with 0.1% Triton X-100, blocked with 2% bovine serum albumin (BSA; all from Sigma, St. Louis, Mo.), and incubated overnight with the following primary antibodies; anti-CD31 (1:1,000; Abcam Inc., Cambridge, Mass.), anti-MMP-9, anti-ICMA-1, anti-VCAM-1 (1:1,000; from Bioss Antibodies, Woburn, Mass.), anti-TNFα, anti-NF-κB (1:1,000; all from biorbyt LLC, San Franciso, Calif.) anti-macrophage/monocyte (Abnova Crop., Taipei, Taiwan), and anti-VEGF-A (Abbiotec, San Diego, Calif.).
(§7) Next, the tissue sections were incubated with a secondary antibody for 45 minutes. The immunological reactions therein were visualized with diaminobenzidine (DAB) chromogen, and the tissue sections were counterstained with Mayer's hematoxylin (Sigma) for 30 seconds at room temperature.
(§8) The sections were photographed with a virtual microscope (virtual microscope; NanoZoomer 2.0 RS, Hamamatsu, Japan).
(§9) The rabbits were randomly divided into three groups: the alkaline burn group (n=5), the peptide I group (n=5), and the peptide II group (n=5). […]

Assay [6] concerns VEGF. As to the kind of experiment: Immunohistochemistry of angiogenic marker VEGF in alkaline burn rabbit cornea. To be noted: 10 mg/mL instilled 4 times per day, 10th day, compared with the peptide I group. As to the method: as §5, §6, §7, §8, §9
Assay [7] concerns NF-κB. Description: Immunohistochemistry of NF-κB in alkaline burn rabbit cornea. To be noted: 10 mg/mL instilled 4 times per day, 10th day, compared to peptide I treatment. As to the method: as §5, §6, §7, §8, §9
For assay [8], the system named is TNFα. As to the kind of experiment: Immunohistochemistry of inflammatory marker TNFα in alkaline burn rabbit cornea. The conditions noted are these: 10 mg/mL instilled 4 times per day, 10th day. The method, then: as §5, §6, §7, §8, §9
For assay [9], the system named is macrophages. Description: Immunohistochemistry of macrophages in alkaline burn rabbit cornea. To be noted: 10 mg/mL instilled 4 times per day, 10th day. The method, then:
as §5, §6, §7, §8, §9

The subject of assay [10] is CD31. Description: Immunohistochemistry of angiogenic marker CD31 in alkaline burn rabbit cornea. To be noted: 10 mg/mL instilled 4 times per day, 10th day, compared with the peptide I group. The method, then: as §5, §6, §7, §8, §9
Assay [11] concerns MMP-9. Description: Immunohistochemistry of inflammatory marker MMP-9 in alkaline burn rabbit cornea. The conditions noted are these: 10 mg/mL instilled 4 times per day, 10th day, compared to the peptide I group. The method, then: as §5, §6, §7, §8, §9
Assay [12] has as its system ICAM-1. As to the kind of experiment: Immunohistochemistry of inflammatory marker ICAM-1 in alkaline burn rabbit cornea. To be noted: 10 mg/mL instilled 4 times per day, 10th day. The method, then: as §5, §6, §7, §8, §9

Regarding “GDRGD (Collagen type I, alpha 1) [peptide I, collagen type I α1 based peptide from CDEM, synthesized; used as comparative group]”, the “corneal opacity score (graded 0 through 3)” value in assay [1] was 2.1±0.3. Moreover, the “histological alterations (epithelial proliferation, infiltration of inflammatory cells, stromal edema, angiogenesis; H&E)” value in assay [2] was “little effect”. The substance also gave a corneal thickness in assay [3] of 1066.0±31.7 μm. The “fibrotic changes / population of fibroblast in stroma (Masson's trichrome)” value in [4] was “little effect on the fibrotic changes”.
Take “GQDGLAGPK (Collagen type II, alpha 1) [peptide II, collagen type II α1 based peptide isolated from chondrocyte-derived extracellular matrix (CDEM), synthesized]”: in assay [5], the “expression of VCAM-1” value is listed as “decreased”. Further, the “corneal angiogenesis (scored 0 through 3)” value in assay [1] (compared to the control group (2.7±0.5)) is listed as “decreased angiogenesis”. Besides, in [1], the “corneal opacity score (graded 0 through 3)” value was found to be 1.9±0.6. The “histological alterations (epithelial proliferation, infiltration of inflammatory cells, stromal edema, angiogenesis; H&E)” value in [2] is given as “improved”. Also, the “expression of VEGF in epithelium, subepithelium and stroma” value in assay [6] was “significantly decreased”. Also, the “expression of NF-κB in stroma” value in [7] is “decreased”. Further, the corneal thickness in assay [3] amounted to 876.0±37.0 μm. Moreover, in [8], the “expression of TNFα” value is on record as “decreased”. The expression of macrophages result in [9] is listed as “effectively suppressed”. For the same substance, the “fibrotic changes / population of fibroblast in stroma (Masson's trichrome)” value in assay [4] was “significantly suppressed the population of fibroblast”. Moreover, the “expression of CD31 in epithelium, subepithelium and stroma” value in [10] was “significantly decreased”. The “expression of MMP-9” value in assay [11] was “suppressed”. Also, the “expression of ICAM-1” value in [12] is reported as “decreased”.
